Experimental data: article PMC10999543, “Identification of kinase modulators as host-directed therapeutics against intracellular methicillin-resistant Staphylococcus aureus” (Frontiers in Cellular and Infection Microbiology, 2024)
Like-named read-outs stand apart in the source and are kept apart here.

Tests used:
[1] = test system: intracellular MRSA; type: cell-based, Staphylococcus aureus; conditions: for %GFP+ rep 1 / z-scoreMRSA+ rep 1: replicate 1; for %GFP+ rep 2 / z-scoreMRSA+ rep 2: replicate 2; for %GFP+ rep 3 / z-scoreMRSA+ rep 3: replicate 3; for z-scoreMRSA+ mean: mean of 3 replicates
Description: (§1) The cells were resuspended in cell culture medium without antibiotics, seeded with 10,000 cells/well into Costar flat-bottom 96-well plates (Corning, Amsterdam, the Netherlands), and were incubated overnight at 37°C/5% CO2. The next day, the bacteria were centrifuged at ≥1800 g for 15 min and resuspended in cold PBS + 5 mM ethylenediaminetetraacetic acid (EDTA). The number of CFUs present in the bacterial suspension was estimated from the optical density at 600 nm (OD600) by assuming 8x10^8 CFUs to be present in a bacterial suspension with OD600 = 1, based on prior titrations. The bacterial suspension was diluted in cell culture medium without antibiotics and added to the cells. Accuracy of the multiplicity of infection (MOI) was validated by plating serial dilutions of the MRSA inoculums on Difco TS agar plates (BD Biosciences). The calculated mean MOI throughout all experiments was 6.8 ± 4.6 (mean ± SD). Infected cells were centrifuged for 3 min at 150 g and incubated for 1 hour at 37°C/5% CO2. Next, the cells were incubated with fresh cell culture medium supplemented with 30 µg/ml gentamicin sulphate (Lonza BioWhittaker, Basel, Switzerland) for 15 min at 37°C/5% CO2 to kill residual extracellular bacteria. Infected cells were incubated overnight at 37°C/5% CO2 in cell culture medium in the presence of kinase inhibitors and 5 µg/ml gentamicin sulphate-containing medium to prevent the growth of extracellular bacteria. The solvent of the compounds, DMSO, was used at equal % v/v as a negative control. For the screen, each compound was tested in triplicate, on separate cell culture plates, resulting in triplicate values for each kinase inhibitor.
(§2) HeLa cells were harvested by trypsinization and fixed with 1% paraformaldehyde. Samples were measured on a FACSLyric with HTS extension (BD Biosciences). Flow cytometry data were analysed using FlowJo version 10 (TreeStar, Ashland, OR, USA). HeLa cells positive for GFP were gated to calculate the percentage of MRSA-infected cells. The cell count was used as surrogate readout of cell viability.
To identify potential “hit” compounds, the flow cytometry data were used to calculate standard z-scores using z = (x-μ)/σ – zneg, where x is total event count or the percent of GFP-positive cells from a single well, μ is the mean from wells of the plate, σ is the standard deviation of the plate and zneg is the mean z-score of the negative control of the plate (i.e., DMSO) ([Korbee et al., 2018]). To minimize the possibility that the presence of extreme values on a plate affected the z-scores, raw values that deviated two-fold from the negative controls were excluded when calculating plate means and standard deviations as used in the aforementioned formula. Compounds were considered a “hit” when z-scoreMRSA+ ≤ -2 and z-scoreHeLa ≥ -3 for cell count. In cases where compounds were screened twice, the average values were used to select hit compounds.

[2] = test system: HeLa cells; test: Compound screen by flow cytometry: HeLa cell count as surrogate readout of cell viability (z-scoreHeLa); type: cell-based, human
Description: as §1, §2
To minimize the possibility that the presence of extreme values on a plate affected the z-scores, raw values that deviated two-fold from the negative controls were excluded when calculating plate means and standard deviations as used in the aforementioned formula. Compounds were considered a “hit” when z-scoreMRSA+ ≤ -2 and z-scoreHeLa ≥ -3 for cell count. In cases where compounds were screened twice, the average values were used to select hit compounds.

[3] = PKIS compounds raw data, MRSA-infected HeLa cells
[4] = compound screen, MRSA-infected HeLa cells
[5] = PKIS compounds raw data, replicate 1, HeLa cell count
[6] = PKIS compounds raw data, replicate 2, HeLa cell count
[7] = PKIS compounds raw data, replicate 3, HeLa cell count
[8] = PKIS compound screen raw data, MRSA-infected HeLa cells
[9] = PKIS compound screen, MRSA-infected HeLa cells
[10] = PKIS compound screen, Yes/No call (effect without cell death)
[11] = PKIS compound screen, Yes/No call on z-scoreMRSA+
[12] = PKIS compound screen raw data, HeLa cell count, replicate 1
[13] = PKIS compound screen raw data, HeLa cell count, replicate 2
[14] = PKIS compound screen raw data, HeLa cell count, replicate 3
[15] = PKIS compound screen, HeLa cell count, mean of 3 replicates
[16] = PKIS compound screen, HeLa cell count, replicate 1
[17] = PKIS compound screen, HeLa cell count, replicate 2
[18] = PKIS compound screen, HeLa cell count, replicate 3
[19] = PKIS compound screen, Yes/No call on z-scoreHeLa
[20] = PKIS compound screen, Yes/No call
[21] = PKIS compound screen, mean of 3 replicates
[22] = PKIS compound screen, replicate 1
[23] = PKIS compound screen, replicate 2
[24] = PKIS compound screen, replicate 3

CCn1cc(-c2ccnc3[nH]ccc23)c(-c2cccc(NC(=O)Nc3ccc(OCc4ccccc4)cc3)c2)n1 [GSK718429A]
%GFP+ rep 1 [1, 3]: 12.6%
%GFP+ rep 2 [1, 3]: 13.0%
%GFP+ rep 3 [1, 3]: 13.2%
effect ([1]; Yes/No call from z-scoreMRSA+): No
hit ([1]; Yes/No: effect without cell death): No
z-scoreMRSA+ mean [1, 4]: -0.38
z-scoreMRSA+ rep 1 [1, 4]: -0.18
z-scoreMRSA+ rep 2 [1, 4]: -0.17
z-scoreMRSA+ rep 3 [1, 4]: -0.79
cell count rep 1 [2, 5]: 2721
cell count rep 2 [2, 6]: 2140
cell count rep 3 [2, 7]: 4945
cell death ([2]; Yes/No call from z-scoreHeLa): No
z-scoreHeLa mean ([2]; compound screen, HeLa cell count, mean of 3 replicates): -1.48
z-scoreHeLa rep 1 ([2]; compound screen, HeLa cell count, replicate 1): -1.86
z-scoreHeLa rep 2 ([2]; compound screen, HeLa cell count, replicate 2): -1.61
z-scoreHeLa rep 3 ([2]; compound screen, HeLa cell count, replicate 3): -0.96

COc1cc(Nc2nccc(N3CCC(NC(=O)c4cc5ccccc5s4)C3)n2)cc(OC)c1OC (stereo not shown) [GSK1379760A]
%GFP+ rep 1 [1, 8]: 16.3%
%GFP+ rep 2 [1, 8]: 17.7%
%GFP+ rep 3 [1, 8]: 19.1%
z-scoreMRSA+ mean [1, 9]: -0.32
z-scoreMRSA+ rep 1 [1, 9]: -0.49
z-scoreMRSA+ rep 2 [1, 9]: -0.25
z-scoreMRSA+ rep 3 [1, 9]: -0.21
hit [1, 10]: No
effect [1, 11]: No
cell count rep 1 [2, 12]: 31010
cell count rep 2 [2, 13]: 36298
cell count rep 3 [2, 14]: 43524
z-scoreHeLa mean [2, 15]: 0.80
z-scoreHeLa rep 1 [2, 16]: 1.65
z-scoreHeLa rep 2 [2, 17]: 0.28
z-scoreHeLa rep 3 [2, 18]: 0.48
cell death [2, 19]: No

Cc1ccc(Nc2ccnc(Nc3cccc(C(N)=O)c3)n2)cc1O [GW575808A]
%GFP+ rep 1 [1, 8]: 13.4%
%GFP+ rep 2 [1, 8]: 14.8%
%GFP+ rep 3 [1, 8]: 16.1%
z-scoreMRSA+ mean [1, 9]: -1.22
z-scoreMRSA+ rep 1 [1, 9]: -1.41
z-scoreMRSA+ rep 2 [1, 9]: -1.12
z-scoreMRSA+ rep 3 [1, 9]: -1.12
hit [1, 10]: No
effect [1, 11]: No
cell count rep 1 [2, 12]: 19398
cell count rep 2 [2, 13]: 38059
cell count rep 3 [2, 14]: 43165
z-scoreHeLa mean [2, 15]: 0.31
z-scoreHeLa rep 1 [2, 16]: -0.11
z-scoreHeLa rep 2 [2, 17]: 0.61
z-scoreHeLa rep 3 [2, 18]: 0.42
cell death [2, 19]: No

Cc1ccc(NC(=O)Nc2ccccc2)cc1-c1ccc(C(=O)Nc2ccncc2)cc1 [GSK1398471A]
effect [1, 20]: No
hit [1, 10]: No
z-scoreMRSA+ mean ([1]; PKIS compound screen): 2.16
z-scoreMRSA+ rep 1 ([1]; PKIS compound screen): 1.78
z-scoreMRSA+ rep 2 ([1]; PKIS compound screen): 2.78
z-scoreMRSA+ rep 3 ([1]; PKIS compound screen): 1.92
%GFP+ rep 1 [1, 3]: 36.2%
%GFP+ rep 2 [1, 3]: 40.5%
%GFP+ rep 3 [1, 3]: 37.6%
cell death [2, 20]: No
z-scoreHeLa mean [2, 21]: -2.19
z-scoreHeLa rep 1 [2, 22]: -2.47
z-scoreHeLa rep 2 [2, 23]: -2.21
z-scoreHeLa rep 3 [2, 24]: -1.88
cell count rep 1 [2, 5]: 1939
cell count rep 2 [2, 6]: 2675
cell count rep 3 [2, 7]: 2624

COc1ccc(Nc2nccc(N3CCC(NC(=O)c4cc5ccccc5s4)C3)n2)cc1 (stereo not shown) [GSK1379738A]
%GFP+ rep 1 [1, 8]: 23.4%
%GFP+ rep 2 [1, 8]: 24.0%
%GFP+ rep 3 [1, 8]: 25.7%
z-scoreMRSA+ mean [1, 9]: 1.73
z-scoreMRSA+ rep 1 [1, 9]: 1.76
z-scoreMRSA+ rep 2 [1, 9]: 1.65
z-scoreMRSA+ rep 3 [1, 9]: 1.80
hit [1, 10]: No
effect [1, 11]: No
cell count rep 1 [2, 12]: 35022
cell count rep 2 [2, 13]: 33049
cell count rep 3 [2, 14]: 42431
z-scoreHeLa mean [2, 15]: 0.75
z-scoreHeLa rep 1 [2, 16]: 2.26
z-scoreHeLa rep 2 [2, 17]: -0.32
z-scoreHeLa rep 3 [2, 18]: 0.30
cell death [2, 19]: No

COc1cccc(-n2ncc3c(N/N=C/c4ccncc4)ncnc32)c1 [GW784752X]
effect [1, 20]: No
hit [1, 10]: No
z-scoreMRSA+ mean ([1]; PKIS compound screen): -0.71
z-scoreMRSA+ rep 1 ([1]; PKIS compound screen): -0.44
z-scoreMRSA+ rep 2 ([1]; PKIS compound screen): -0.63
z-scoreMRSA+ rep 3 ([1]; PKIS compound screen): -1.06
%GFP+ rep 1 [1, 3]: 11.8%
%GFP+ rep 2 [1, 3]: 11.6%
%GFP+ rep 3 [1, 3]: 12.3%
cell death [2, 20]: No
z-scoreHeLa mean [2, 21]: -0.20
z-scoreHeLa rep 1 [2, 22]: -0.77
z-scoreHeLa rep 2 [2, 23]: -0.44
z-scoreHeLa rep 3 [2, 24]: 0.60
cell count rep 1 [2, 5]: 3928
cell count rep 2 [2, 6]: 3683
cell count rep 3 [2, 7]: 8225

Fc1ccc(-c2ncn(C3CCNCC3)c2-c2ccnc(Oc3cccc(F)c3)n2)cc1 [SB-251505]
%GFP+ rep 1 [1, 8]: 15.0%
%GFP+ rep 2 [1, 8]: 15.3%
%GFP+ rep 3 [1, 8]: 16.6%
z-scoreMRSA+ mean [1, 9]: -0.95
z-scoreMRSA+ rep 1 [1, 9]: -0.91
z-scoreMRSA+ rep 2 [1, 9]: -0.97
z-scoreMRSA+ rep 3 [1, 9]: -0.97
hit [1, 10]: No
effect [1, 11]: No

Fc1ccc(-c2ncn(C3CCNCC3)c2-c2ccnc(Oc3ccc(Cl)cc3)n2)cc1 [SB-278539]
%GFP+ rep 1 [1, 8]: 13.4%
%GFP+ rep 2 [1, 8]: 15.5%
%GFP+ rep 3 [1, 8]: 16.2%
z-scoreMRSA+ mean [1, 9]: -1.14
z-scoreMRSA+ rep 1 [1, 9]: -1.41
z-scoreMRSA+ rep 2 [1, 9]: -0.91
z-scoreMRSA+ rep 3 [1, 9]: -1.09
hit [1, 10]: No
effect [1, 11]: No

Fc1ccc(-c2ncn(C3CCNCC3)c2-c2ccnc(Oc3cccc(C(F)(F)F)c3)n2)cc1 [SB-253226]
%GFP+ rep 1 [1, 8]: 14.0%
%GFP+ rep 2 [1, 8]: 15.8%
%GFP+ rep 3 [1, 8]: 16.0%
z-scoreMRSA+ mean [1, 9]: -1.07
z-scoreMRSA+ rep 1 [1, 9]: -1.22
z-scoreMRSA+ rep 2 [1, 9]: -0.82
z-scoreMRSA+ rep 3 [1, 9]: -1.15
hit [1, 10]: No
effect [1, 11]: No

Cc1ccc(C)c(Oc2nccc(-c3c(-c4ccc(F)cc4)ncn3C3CCNCC3)n2)c1 [SB-284852-BT]
cell count rep 1 [2]: 26025
cell count rep 2 [2]: 26957
cell count rep 3 [2]: 22542
cell death [2]: No
z-scoreHeLa mean [2]: 0.10
z-scoreHeLa rep 1 [2]: -0.71
z-scoreHeLa rep 2 [2]: 0.29
z-scoreHeLa rep 3 [2]: 0.70

Cc1cc(C)cc(Oc2nccc(-c3c(-c4ccc(F)cc4)ncn3C3CCNCC3)n2)c1 [SB-284851-BT]
cell count rep 1 [2]: 26737
cell count rep 2 [2]: 41520
cell count rep 3 [2]: 48762
cell death [2]: No
z-scoreHeLa mean [2]: 1.19
z-scoreHeLa rep 1 [2]: 1.00
z-scoreHeLa rep 2 [2]: 1.26
z-scoreHeLa rep 3 [2]: 1.31

Cc1cnc(N)c(/C=C/c2cncc(C(=O)NCCc3ccc(Cl)cc3Cl)c2)c1 [GSK190937A]
%GFP+ rep 1 [1, 8]: 17.3%
%GFP+ rep 2 [1, 8]: 19.0%
%GFP+ rep 3 [1, 8]: 19.5%
z-scoreMRSA+ mean [1, 9]: -0.04
z-scoreMRSA+ rep 1 [1, 9]: -0.18
z-scoreMRSA+ rep 2 [1, 9]: 0.14
z-scoreMRSA+ rep 3 [1, 9]: -0.09
hit [1, 10]: No
effect [1, 11]: No

COc1ccccc1C1=C(Nc2ccc(O)c(Cl)c2)C(=O)NC1=O [SB-381904]
%GFP+ rep 1 [1, 8]: 16.9%
%GFP+ rep 2 [1, 8]: 18.3%
%GFP+ rep 3 [1, 8]: 18.4%
z-scoreMRSA+ mean [1, 9]: -0.26
z-scoreMRSA+ rep 1 [1, 9]: -0.30
z-scoreMRSA+ rep 2 [1, 9]: -0.07
z-scoreMRSA+ rep 3 [1, 9]: -0.42
hit [1, 10]: No
effect [1, 11]: No
